Test system: genes predictive for the anti-inflammatory macrolide effect
Assay: Genes statistically predictive of Clari response: differentially expressed with Clari but not the inactive macrolides MAA or Josa (Appendix E)
Type: cell-based
Source text: In the case of the above-mentioned (i) related to arachidonic acid biosynthesis, specifically, methods of the embodiment involve assaying whether a test macrolide alters biosynthesis of arachidonic acid, alters the expression or activities of enzymes involved in the biosynthesis or activation of arachidonic acid (e.g., arachidonic acid CoA synthetase, delta-6 desaturase, fatty acid elongase, and delta-5 desaturase, AA-related genes in Tables 2 and 3), or alters the expression of genes identified as predictive for the anti-inflammatory macrolide effect (Appendix E). Assays in which arachidonic acid or gene expression or enzymatic activity is detected can be carried out after contacting a cell with a test macrolide. Any cell line that secretes prostaglandin or produces arachidonic acid can be used. Epithelial and macrophages lines (e.g., A549 or THP-1) are suitable for this purpose; other cell lines can be identified by carrying out assays such as those described in the specific Examples, below. Alternatively, screening assays can be carried out after adding a test macrolide to an in vitro cell system (e.g., a cellular extract or liver microsome preparation) or an in vitro enzyme assay system.

CO[C@@H]1[C@@H](O[C@@H]2O[C@H](C)[C@@H](O[C@H]3C[C@@](C)(O)[C@@H](OC(=O)CC(C)C)[C@H](C)O3)[C@H](N(C)C)[C@H]2O)[C@@H](CC=O)C[C@@H](C)[C@@H](O)/C=C/C=C/C[C@@H](C)OC(=O)C[C@H]1OC(C)=O [josamycin]
group mean, gene SERPING1 (SpotID 46579, MAA and Josa vs. Clari): 1.03 | group mean, gene C12orf8 (SpotID 46586, MAA and Josa vs. Clari): 0.98 | mean group, FLJ20699 (SpotID 46633, pooled group mean): 1.00 | mean group, ARHGAP1 (SpotID 46648, pooled group mean): 1.07 | group mean, gene KIAA1172 (SpotID 46679, MAA and Josa vs. Clari): 1.04 | mean group, KIAA1172 (SpotID 46679, pooled group mean): 1.04 | group mean, gene MKNK2 (SpotID 46825, MAA and Josa vs. Clari): 0.94 | mean group, MKNK2 (SpotID 46825, pooled group mean): 0.94 | group mean, gene PRKAR1A (SpotID 46838, MAA and Josa vs. Clari): 1.04 | group mean, gene ARHGDIA (SpotID 46843, MAA and Josa vs. Clari): 1.08 | mean group, ARHGDIA (SpotID 46843, pooled group mean): 1.08 | group mean, gene HEXA (SpotID 46882, MAA and Josa vs. Clari): 0.97 | group mean, gene CDIPT (SpotID 46896, MAA and Josa vs. Clari): 0.91 | mean group, CDIPT (SpotID 46896, pooled group mean): 0.91 | mean group, PACE (SpotID 46923, pooled group mean): 1.00 | group mean, gene METAP2 (SpotID 46935, MAA and Josa vs. Clari): 1.05 | mean group, METAP2 (SpotID 46935, pooled group mean): 1.05 | group mean, gene HSPBP1 (SpotID 46979, MAA and Josa vs. Clari): 1.02 | mean group, EREG (SpotID 46988, pooled group mean): 1.11 | group mean, gene TFPI2 (SpotID 46991, MAA and Josa vs. Clari): 1.00 | group mean, gene C2orf3 (SpotID 47034, MAA and Josa vs. Clari): 1.01 | mean group, C2orf3 (SpotID 47034, pooled group mean): 1.01 | group mean, gene NFRKB (SpotID 47056, MAA and Josa vs. Clari): 0.96 | group mean, gene GOLGB1 (SpotID 47111, MAA and Josa vs. Clari): 1.01 | group mean, gene MCM2 (SpotID 47123, MAA and Josa vs. Clari): 0.97 | group mean, gene KIAA0251 (SpotID 47131, MAA and Josa vs. Clari): 0.92 | group mean, gene ARHGAP1 (SpotID 47192, MAA and Josa vs. Clari): 1.10 | group mean, gene ITGB5 (SpotID 47212, MAA and Josa vs. Clari): 0.94 | mean group, NUBP1 (SpotID 47241, pooled group mean): 1.04 | group mean, gene AKR1A1 (SpotID 47249, MAA and Josa vs. Clari): 0.93 | group mean, gene HKE4 (SpotID 47251, MAA and Josa vs. Clari): 0.94 | mean group, EPOR (SpotID 47314, pooled group mean): 0.99 | group mean, gene ADAM11 (SpotID 47352, MAA and Josa vs. Clari): 0.93 | mean group, ADAM11 (SpotID 47352, pooled group mean): 0.93 | group mean, gene ERF (SpotID 47354, MAA and Josa vs. Clari): 1.15 | mean group, P4HB (SpotID 47366, pooled group mean): 1.05 | group mean, gene MTHFD1 (SpotID 47406, MAA and Josa vs. Clari): 1.12 | mean group, CETN2 (SpotID 47415, pooled group mean): 1.06 | group mean, gene SNK (SpotID 47418, MAA and Josa vs. Clari): 1.03 | mean group, SNK (SpotID 47418, pooled group mean): 1.03 | mean group, GCS1 (SpotID 47432, pooled group mean): 0.90 | group mean, gene DCTN1 (SpotID 47439, MAA and Josa vs. Clari): 1.04 | mean group, DCTN1 (SpotID 47439, pooled group mean): 1.04 | group mean, gene RANBP1 (SpotID 47446, MAA and Josa vs. Clari): 1.04 | mean group, RANBP1 (SpotID 47446, pooled group mean): 1.04 | mean group, MSH3 (SpotID 47504, pooled group mean): 1.09 | mean group, SERPINA1 (SpotID 47522, pooled group mean): 1.04 | group mean, gene PTK2B (SpotID 47524, MAA and Josa vs. Clari): 1.34 | group mean, gene ARHGDIA (SpotID 47535, MAA and Josa vs. Clari): 1.08 | group mean, gene TRAP1 (SpotID 47622, MAA and Josa vs. Clari): 1.09 | mean group, TRAP1 (SpotID 47622, pooled group mean): 1.09 | group mean, gene HSPA9B (SpotID 47661, MAA and Josa vs. Clari): 1.10 | mean group, NR4A2 (SpotID 47679, pooled group mean): 0.95 | group mean, gene HSPA9B (SpotID 47694, MAA and Josa vs. Clari): 1.09 | mean group, HSPA9B (SpotID 47694, pooled group mean): 1.09 | group mean, gene MAD4 (SpotID 47705, MAA and Josa vs. Clari): 0.97 | group mean, gene NBS1 (SpotID 47754, MAA and Josa vs. Clari): 1.18 | mean group, NBS1 (SpotID 47754, pooled group mean): 1.18 | group mean, gene KIAA1922 (SpotID 47755, MAA and Josa vs. Clari): 1.14 | group mean, gene POLA (SpotID 47776, MAA and Josa vs. Clari): 1.02 | mean group, POLA (SpotID 47776, pooled group mean): 1.02 | group mean, gene BET3 (SpotID 47793, MAA and Josa vs. Clari): 0.95 | group mean, gene GOT1 (SpotID 47802, MAA and Josa vs. Clari): 1.02 | mean group, GOT1 (SpotID 47802, pooled group mean): 1.02 | group mean, gene ENTPD6 (SpotID 47811, MAA and Josa vs. Clari): 0.93 | mean group, ENTPD6 (SpotID 47811, pooled group mean): 0.93 | mean group, SSI-1 (SpotID 47846, pooled group mean): 1.03 | group mean, gene PRLR (SpotID 47850, MAA and Josa vs. Clari): 1.09 | mean group, PRLR (SpotID 47850, pooled group mean): 1.09 | group mean, gene ERF (SpotID 47898, MAA and Josa vs. Clari): 1.14 | group mean, gene YWHAE (SpotID 47911, MAA and Josa vs. Clari): 1.04 | group mean, gene CCNE2 (SpotID 47926, MAA and Josa vs. Clari): 0.98 | group mean, gene P4HA1 (SpotID 47935, MAA and Josa vs. Clari): 0.95 | mean group, P4HA1 (SpotID 47935, pooled group mean): 0.95 | group mean, gene CTSB (SpotID 47937, MAA and Josa vs. Clari): 0.98 | group mean, gene INPP5E (SpotID 47939, MAA and Josa vs. Clari): 0.99 | group mean, gene SF3B3 (SpotID 47947, MAA and Josa vs. Clari): 1.10
